Laboratory results as given in US20230096750A1, “Cyanine dyes and their usage for in vivo staining of microorganisms and other living cells” (Philipps-Universität Marburg, priority 2021, published 2023).
Where two headings read alike, the source gives them in different places.

How the values were obtained:
[1] = test system: dsDNA; experiment: Fluorescence titrations (affinity towards dsDNA); assay type: binding; settings: for RFU for slits 5/5: value given in Slits column for slits 5/5 nm instead of 10/10; for RFU + DNA: with DNA; for RFU − DNA: without DNA; for Kd: affinity towards dsDNA
Description: The affinity of the TramTO derivatives towards dsDNA is usually higher than the affinity of the derivatives without the modified side chain according to this invention. […] KD values are determined as is well known to any person being of ordinary skill in the art.

[2] = Molar extinction coefficients; assay type: physicochemical
[3] = test system: live and dead bacteria (E. Coli); experiment: Flow cytometry of live versus dead cells labelled with 6-TramTO-1; assay type: cell-based; settings: 5 μM dye for 5 min
Description: The flow cytometric measurements are performed by use of the LSR Fortessa cell analyser (BD Biosciences, USA) or other commercially available apparatuses (e.g. FACSAria III (BD Biosciences, USA) and Guava easyCyte (Merck Millipore, USA)). […] A minimum of 10000 events per sample is analysed. The measurements are each performed in at least two independent experiments. Bacteria are labelled for 15 min with 5 μM of the corresponding dyes. […] For 6-TramTO-1 (1) one can see clear labelling when 5 μM of the dye are added for only 5 min before the measurements, dead cells (treated with 70% isopropanol for 1 h, then washed with saline 3×) being labelled about 10× stronger: MFI 135 vs 1337. FIGS. 5A-5C show additional data. […] FIG. 5B: The graphs of FIG. 5B show flow cytometric data of mixtures of dead and live E. Coli treated with left graph: PI (20 μM) and right graph: 6-TramTO-1 (1, 5 μM) for 5 min showing that the TramTO and PI give the same results. • The parameter settings regarding excitation/emission (as far as they are applied) are equivalent to those described within the legend of FIG. 5A.

[4] = biological target: dsDNA; settings: affinity towards dsDNA; read-out: KD (literature value); cited from earlier work
[5] = test system: HeLa cells; experiment: Viability of HeLa cells, resazurin fluorescence-based cell viability assay; settings: dye concentration of 10 μM
[6] = solvent DMSO; cited from earlier work

SMILES	RFU for slits 5/5 [1] [RFU)]	RFU + DNA ([1]; slits 10/10 nm) [RFU]	RFU − DNA ([1]; slits 10/10 nm) [RFU]	Kd [1] [µM]	RFU + DNA ([1]; slits 5/5 nm) [RFU]	RFU − DNA ([1]; slits 5/5 nm) [RFU]	Molar extinction coefficient ([2]; solvent H2O) [M⁻¹ cm⁻¹]	further results
CN(C)c1ccc(/C=C/c2sc3ccccc3[n+]2CCCCCCn2cc(CN)nn2)cc1 [6-TramTAS (2), (E)-3-(6-(4-(aminomethyl)-1H-1,2,3-triazol-1-yl)hexyl)-2-(4-(dimethylamino)styryl)benzo[d]thiazol-3-ium]	~8	90	2.9					Molar extinction coefficient ([2]; solvent MeCN): 70463 M⁻¹ cm⁻¹
CC[n+]1ccc(/C=C2\Sc3ccccc3N2CCCCCCn2cc(CN)nn2)c2ccccc21 [6-TramTO-1 (1), (Z)-4-((3-(6-(4-(ammoniomethyl)-1H-1,2,3-triazol-1-yl)hexyl)benzo[d]thiazol-2(3H)-ylidene)methyl)-1-ethylquinolin-1-ium]				8.63 ± 4.34	460	1.2	61813	affinity towards dsDNA, superior to 6-TramTAS ([1]; ratio versus 6-TramTAS): ~3 ×; affinity towards dsDNA, superior to 6-TramTO-3 ([1]; ratio versus 6-TramTO-3): ~2 ×; labelling of dead cells stronger than live cells [3]: about 10 ×; MFI ([3]; dead cells (70% isopropanol for 1 h)): 1337; MFI ([3]; live cells): 135
CC[n+]1ccc(/C=C/C=C2\Sc3ccccc3N2CCCCCCn2cc(CN)nn2)c2ccccc21.[I-] [6-TramTO-3 (3)]				23 ± 1.81	280	11.8	59403	Kd [4]: 19.5 ± 2.6 µM; viability of HeLa cells compared to reference [5]: about 97%
CC[n+]1ccc(/C=C2\Sc3ccccc3N2C)c2ccccc21 [CH3TO-1 (4), (Z)-1-ethyl-4-((3-methylbenzo[d]thiazol-2(3H)-ylidene)methyl)quinolin-1-ium, reference compound]	~10	125	0.2	20.6 ± 6.67				Molar extinction coefficient (lit.) [6]: lit. 63000 M^−1cm^−1
CC[n+]1ccc(/C=C2\Sc3ccccc3N2C)c2ccccc21 [CH3TO-3 (6), (Z)-1-ethyl-4-((3-methylbenzo[d]thiazol-2(3H)-ylidene)methyl)quinolin-1-ium, reference compound]				45 ± 1.05	210	6.8		Molar extinction coefficient ([2]; solvent DMSO): 37153 M⁻¹ cm⁻¹
